Measured values as given in paper PMC9080521, “Molecular basis of rutin inhibition of protein disulfide isomerase (PDI) by combined in silico and experimental methods” (RSC Advances, 2018).

Experiments:
murine proteins (mPDI) = murine proteins (mPDI) (Mus musculus, UniProt P09103); assay: Fluorescence-based direct binding assay, murine proteins as a group; details: murine MBP-mPDI proteins, read-out: binding affinities of murine proteins (IC50)
Method: 2. Binding affinity (IC50) of rutin to human or murine MBP-fused PDI proteins The MBP-fused PDI proteins (18 μМ) were incubated with a gradient of 10 rutin’s concentrations differed by 2- or 3-fold and 3 repetitions in 384-well black plate at room temperature for 30 min before measurements. The total assay volume was filled to 100 μL using the assay buffer (pH 7.4) contains 150 mM NaCl, 20 mM Tris, 1 mM EDTA, 1 mM β-ME and 5% glycerin. The fluorescence emission spectrum of the mixture were measured with the excitation at 430 nm and the emission at 530 nm at room temperature on a BioTek Synergy microplate reader with a sensitivity of 100. The data were analyzed by GraphPad Prism (Fig. S3).

[1] = test system: MBP (MBP-PNGase, MBP-SpoIVB, MBP-MOC1); assay: Fluorescence measurement with MBP-fusion control proteins; format: binding; details: rutin 55 μM, MBP-fusion proteins 18 μM, excitation 430 nm
Method: The relevant recombinant proteins were incubated with rutin in black 384-well plate at room temperature for 30 min before measurements. The concentrations of proteins were always kept at 18 μM and rutin was 55 μM. The total assay volume was filled to 100 μL using the protein buffer (pH 7.4). The fluorescence emission spectrum of every mixture were measured with the excitation at 430 nm and the emission at 460 nm at room temperature on a BioTek Synergy microplate reader with a sensitivity of 100 or 120 and measurements of per data with 100 times. […]
presence of three different MBP-fusion proteins. The MBP-fusion proteins (MBP-PNGase protein (gray dash-dot line), MBP-SpoIVB protein (gray dash line) and MBP-MOC1 protein […]
at 430 nm. Addition of rutin (55 μМ) to these proteins (MBP-PNGase in black solid line, MBP-SpoIVB in black dash line and MBP-MOC1 in black dot line) gave the signals almost identical to rutin itself (gray solid), which has a maximum fluorescence at 550 nm.
(1 picture or pasted object on this page, not shown here)

MBP-PDI-b′xa′ E359A = target: T1, MBP-PDI-b′xa′ E359A (Homo sapiens, UniProt P07237, E359A); assay: Insulin reduction assay; format: biochemical; details: rutin 100 μM
T1 construct: MBP-PDI-b′xa′(235–479); His-tag; made in house; host or cells: E. coli BL21 (DE3)
Method: (§1) The insulin reduction assay was performed to assess the enzymatic activity of PDI and its MBP-fused recombinant proteins. PDI can reduce insulin in the presence of dithiothreitol (DTT) along with increase in turbidity of the reaction mixture. We thus monitored spectrophotometrically the aggregation of reduced insulin through the increase of turbidity. The reductase activity was measured in 100 μL in presence of 600 μM insulin, 1.5 μM PDI and recombinant PDI proteins, 1 mM DTT, and with protein buffer (pH 7.4), at room temperature over 100 min by absorption at 650 nm. For inhibition assay, 100 μM of rutin, kaempferitrin, tiliroside and 2′-O-galloylhyperin or control buffer was added to the reaction system.
(§2) We further used the insulin reduction assay to measure the reductase activities of these site-directed MBP-PDI-b′xa′ mutants. This assay has typically good reproducibility as shown by a control experiment with three repetitions (Fig. S7 ^†). We found the PDI mutants maintained reductase activities in the presence of dithiothreitol (DTT). The H354A mutation lowered the reductase activity of wt MBP-PDI-b′xa′ (Fig. 3G) while other mutants had similar reductase activities with that of wt MBP-PDI-b′xa′ (Fig. 3C, F and H–J). Addition of rutin inhibited the reductase activities of both wt MBP-PDI-b′xa′ and the mutants (Fig. 3C and F–J). […] We quantified the inhibition of rutin on these MBP-PDI-b′xa′ mutants by measuring the increase of turbidity (OD650 at 100 min) upon addition of rutin (Fig. 3K).

MBP-PDI-b′xa′ E359K = target: T2, MBP-PDI-b′xa′ E359K (Homo sapiens, UniProt P07237, E359K); assay: Insulin reduction assay; format: biochemical; details: rutin 100 μM
T2 construct: MBP-PDI-b′xa′(235–479); His-tag; made in house; host or cells: E. coli BL21 (DE3)
Method: as §1, §2

MBP-PDI-b′xa′ H354A = target: T3, MBP-PDI-b′xa′ H354A (Homo sapiens, UniProt P07237, H354A); assay: Insulin reduction assay; format: biochemical; details: rutin 100 μM
T3 construct: MBP-PDI-b′xa′(235–479); His-tag; made in house; host or cells: E. coli BL21 (DE3)
Method: as §1, §2

MBP-PDI-b′xa′ K328E = target: T4, MBP-PDI-b′xa′ K328E (Homo sapiens, UniProt P07237, K328E); assay: Insulin reduction assay; format: biochemical; details: rutin 100 μM
T4 construct: MBP-PDI-b′xa′(235–479); His-tag; made in house; host or cells: E. coli BL21 (DE3)
Method: as §1, §2

MBP-PDI-b′xa′ L355R = target: T5, MBP-PDI-b′xa′ L355R (Homo sapiens, UniProt P07237, L355R); assay: Insulin reduction assay; format: biochemical; details: rutin 100 μM
T5 construct: MBP-PDI-b′xa′(235–479); His-tag; made in house; host or cells: E. coli BL21 (DE3)
Method: as §1, §2

wt MBP-PDI-b′xa′ = target: T6, wt MBP-PDI-b′xa′ (Homo sapiens, UniProt P07237); assay: Insulin reduction assay; format: biochemical
T6 construct: MBP-PDI-b′xa′(235–479); His-tag; made in house; host or cells: E. coli BL21 (DE3)
Method: as §1, §2

full-length human PDI = full-length human PDI (Homo sapiens, UniProt P07237); assay: Insulin reduction assay; format: biochemical; details: compound 100 μM, 1.5 μM protein, last read (100 min); PDI alone 1.125
Method: as §1

murine MBP-mPDI-b′xa′ = target: T7, murine MBP-mPDI-b′xa′ (Mus musculus, UniProt P09103); assay: Insulin reduction assay; format: biochemical; details: rutin 100 μM, last read (100 min); MBP-mPDI-b′xa′ alone 0.832
T7 construct: MBP-mPDI-b′xa′ (236–477); His-tag; made in house; host or cells: E. coli BL21 (DE3)
Method: as §1

[2] = test system: platelet aggregation and fibrin generation; details: cited from earlier work
ERp57 = test system: ERp57; set-up: method as in PMID 22565308; details: cited from earlier work
[3] = mouse models, dose of 0.5 mg kg^−1

T5 sequence (P07237 235-479 L355R): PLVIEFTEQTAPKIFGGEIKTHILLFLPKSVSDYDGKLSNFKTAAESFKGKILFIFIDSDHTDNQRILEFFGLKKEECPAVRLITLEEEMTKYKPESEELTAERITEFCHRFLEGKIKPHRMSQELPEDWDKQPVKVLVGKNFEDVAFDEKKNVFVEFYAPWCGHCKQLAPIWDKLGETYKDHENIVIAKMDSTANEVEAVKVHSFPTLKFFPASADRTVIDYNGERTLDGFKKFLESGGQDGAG
T4 sequence (P07237 235-479 K328E): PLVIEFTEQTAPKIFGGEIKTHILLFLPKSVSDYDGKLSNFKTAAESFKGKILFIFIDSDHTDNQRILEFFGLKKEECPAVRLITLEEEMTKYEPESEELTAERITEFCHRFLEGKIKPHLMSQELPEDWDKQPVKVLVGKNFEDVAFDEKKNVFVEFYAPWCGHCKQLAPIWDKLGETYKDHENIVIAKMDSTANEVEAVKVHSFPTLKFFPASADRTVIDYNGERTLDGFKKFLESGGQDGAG
T6 sequence (P07237 235-479): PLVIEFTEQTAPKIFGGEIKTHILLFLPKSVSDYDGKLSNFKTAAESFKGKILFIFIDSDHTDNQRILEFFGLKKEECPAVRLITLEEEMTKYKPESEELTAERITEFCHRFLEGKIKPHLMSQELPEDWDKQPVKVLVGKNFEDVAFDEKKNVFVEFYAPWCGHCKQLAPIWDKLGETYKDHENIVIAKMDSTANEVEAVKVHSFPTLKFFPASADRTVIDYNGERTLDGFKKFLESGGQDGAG
T2 sequence (P07237 235-479 E359K): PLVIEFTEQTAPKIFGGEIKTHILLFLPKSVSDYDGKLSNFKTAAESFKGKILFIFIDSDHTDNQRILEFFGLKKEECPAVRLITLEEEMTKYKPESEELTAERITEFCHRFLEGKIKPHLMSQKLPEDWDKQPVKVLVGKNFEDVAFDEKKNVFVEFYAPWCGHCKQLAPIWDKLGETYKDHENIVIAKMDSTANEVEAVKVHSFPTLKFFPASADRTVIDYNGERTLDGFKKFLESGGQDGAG
T3 sequence (P07237 235-479 H354A): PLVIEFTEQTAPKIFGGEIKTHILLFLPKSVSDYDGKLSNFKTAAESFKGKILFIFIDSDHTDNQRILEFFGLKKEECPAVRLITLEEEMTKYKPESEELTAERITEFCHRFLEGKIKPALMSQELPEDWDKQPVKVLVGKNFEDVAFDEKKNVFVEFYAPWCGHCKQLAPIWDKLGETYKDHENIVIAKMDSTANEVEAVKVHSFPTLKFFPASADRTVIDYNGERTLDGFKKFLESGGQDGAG
T1 sequence (P07237 235-479 E359A): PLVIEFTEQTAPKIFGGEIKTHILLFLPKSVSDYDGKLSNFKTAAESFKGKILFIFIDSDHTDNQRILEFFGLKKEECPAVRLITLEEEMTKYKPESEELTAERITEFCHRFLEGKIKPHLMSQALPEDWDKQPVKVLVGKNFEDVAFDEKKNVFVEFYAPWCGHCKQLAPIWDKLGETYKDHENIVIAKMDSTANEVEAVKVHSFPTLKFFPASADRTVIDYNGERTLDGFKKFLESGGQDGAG
Sequence of murine proteins (mPDI) (P09103 236-369): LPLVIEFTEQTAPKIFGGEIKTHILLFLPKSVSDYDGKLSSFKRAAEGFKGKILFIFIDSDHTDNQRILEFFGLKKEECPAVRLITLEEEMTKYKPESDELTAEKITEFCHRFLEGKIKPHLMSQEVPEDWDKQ
T7 sequence (P09103 236-477): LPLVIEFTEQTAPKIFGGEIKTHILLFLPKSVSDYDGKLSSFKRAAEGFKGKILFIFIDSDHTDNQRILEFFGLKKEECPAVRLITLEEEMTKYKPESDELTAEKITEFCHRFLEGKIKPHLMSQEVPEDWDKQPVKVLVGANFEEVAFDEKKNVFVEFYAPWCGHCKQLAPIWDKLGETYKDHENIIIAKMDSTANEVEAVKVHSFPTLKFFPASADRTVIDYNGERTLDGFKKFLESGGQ
Sequence of full-length human PDI (P07237 18-508): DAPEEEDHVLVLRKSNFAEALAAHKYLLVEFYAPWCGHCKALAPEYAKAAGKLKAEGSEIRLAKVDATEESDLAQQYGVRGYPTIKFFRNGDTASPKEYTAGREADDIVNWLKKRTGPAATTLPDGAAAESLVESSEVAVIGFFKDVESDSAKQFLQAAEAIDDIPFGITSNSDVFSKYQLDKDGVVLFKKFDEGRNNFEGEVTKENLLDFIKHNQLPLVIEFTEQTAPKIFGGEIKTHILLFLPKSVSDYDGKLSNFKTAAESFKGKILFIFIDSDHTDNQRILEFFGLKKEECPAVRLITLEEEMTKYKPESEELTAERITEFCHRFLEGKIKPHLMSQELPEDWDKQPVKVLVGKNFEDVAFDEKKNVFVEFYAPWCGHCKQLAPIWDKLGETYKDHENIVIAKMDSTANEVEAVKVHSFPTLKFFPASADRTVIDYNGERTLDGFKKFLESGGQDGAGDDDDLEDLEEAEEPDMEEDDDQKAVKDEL

SMILES: C[C@@H]1O[C@@H](OC[C@H]2O[C@@H](Oc3c(-c4ccc(O)c(O)c4)oc4cc(O)cc(O)c4c3=O)[C@H](O)[C@@H](O)[C@@H]2O)[C@H](O)[C@H](O)[C@H]1O [rutin]
- IC50 (murine proteins (mPDI)): ~30 µM
- binding to MBP [1]: does not bind
- inhibition at 100 µM (MBP-PDI-b′xa′ E359A; increase of turbidity (OD650) at 100 min, E359A, read-out: Inhibitory efficiency (%)): 86%
- turbidity (OD650), raw kinetic read at 1:40:32 (MBP-PDI-b′xa′ E359A; last read (100 min), E359A alone 0.711): 0.416
- inhibition at 100 µM (MBP-PDI-b′xa′ E359K; increase of turbidity (OD650) at 100 min, E359K, read-out: Inhibitory efficiency (%)): 88.8%
- turbidity (OD650), raw kinetic read at 1:40:32 (MBP-PDI-b′xa′ E359K; last read (100 min), E359K alone 0.698): 0.4
- inhibition at 100 µM (MBP-PDI-b′xa′ H354A; increase of turbidity (OD650) at 100 min, H354A, read-out: Inhibitory efficiency (%)): 82.9%
- turbidity (OD650), raw kinetic read at 1:40:32 (MBP-PDI-b′xa′ H354A; last read (100 min), H354A alone 0.585): 0.35
- inhibition at 100 µM (MBP-PDI-b′xa′ K328E; increase of turbidity (OD650) at 100 min, K328E, read-out: Inhibitory efficiency (%)): 99%
- turbidity (OD650), raw kinetic read at 1:40:32 (MBP-PDI-b′xa′ K328E; last read (100 min), K328E alone 0.777): 0.4
- decrease of inhibitory efficiency compared with wt MBP-PDI-b′xa′ (MBP-PDI-b′xa′ L355R; L355R): modest decrease
- inhibition at 100 µM (MBP-PDI-b′xa′ L355R; increase of turbidity (OD650) at 100 min, L355R, read-out: Inhibitory efficiency (%)): 98.4%
- turbidity (OD650), raw kinetic read at 1:40:32 (MBP-PDI-b′xa′ L355R; last read (100 min), L355R alone 0.819): 0.424
- turbidity (OD650), raw kinetic read at 1:40:32 (wt MBP-PDI-b′xa′; compound 100 μM, 1.5 μM protein, last read (100 min), WT alone 0.829): 0.585
- inhibition at 100 µM (wt MBP-PDI-b′xa′; rutin 100 μM, increase of turbidity (OD650) at 100 min, wt, read-out: Inhibitory efficiency (%)): 100%
- turbidity (OD650), raw kinetic read at 1:40:32 (full-length human PDI): 0.924
- turbidity (OD650), raw kinetic read at 1:40:32 (murine MBP-mPDI-b′xa′): 0.583
- reversal of inhibitory activities on PDI in vivo ([2]; mouse model, infusion of PDI b′x fragment): rapidly reversed
- fibrin generation in vivo [2, 3]: blocked
- platelet aggregation in vivo [2, 3]: blocked
- inhibition of ERp57 (ERp57): did not inhibit
